# Test results from publication PMC6268609, “Synthesis and Evaluation of New β-Carboline-3-(4-benzylidene)-4H-oxazol-5-one Derivatives as Antitumor Agents” (Molecules, 2012).
# Like-named read-outs stand apart in the source and are kept apart here.
# Key:
# prostate (PC-3) [1] = settings: previous work; cited from earlier work
# ovarian (OVCAR-03) [2] = settings: previous work; cited from earlier work
# ovarian (OVCAR-03) [3] = assay: Cytotoxic assay (sulforhodamine B), ovarian; format: cell-based, human; settings: for IC50: Homo sapiens, 48 h, sulforhodamine B assay
# Procedure: (§1) The synthesized compounds were evaluated in vitro against six human cancer cell lines consisting of glioma (U251), melanoma (UACC-62), breast (MCF-7), prostate (PC-3), ovarian (OVCAR-03) and colon (HT-29). Cell lines were obtained from National Cancer Institute (Frederick, MD, USA). Normal cell line (VERO, renal, green monkey), from the Rio de Janeiro Cell Bank, was also used. Stock cultures were grown in medium containing 5 mL RPMI 1640 (GIBCO BRL) supplemented with 5% fetal bovine serum (FBS, GIBCO), at 37 °C with 5% CO2. Penicillin:streptomycin (1000 μg/L:1000 U/L, 1 mL/L) was added to the experimental cultures. Cells in 96-well plates (100 μL cells well^−1) were exposed to compounds 8–11 in DMSO (concentrations of 0.25, 2.5, 25, and 250 μg·mL^−1) at 37 °C, 5% of CO2 in air for 48 h. […] Afterwards cells were fixed with 50% trichloroacetic acid and cell proliferation determined by spectrophotometric quantification (540 nm) of cellular protein content by using sulforhodamine B assay and doxorubicin as the positive control. Three measurements were obtained: at time zero (To, at the beginning of incubation) and 48 h post-incubation for compound-free (C) and tested (T) cells. Cell proliferation was determined according to the equation 100 × [(T − T0)/C − T0], for T0 < T ≤ C, and 100 × [(T − T0)/T0], for T ≤ T0 and a concentration-response curve for each cell line was plotted using software ORIGIN 8.0® (OriginLab Corporation). Using the concentration–response curve for each cell line, the IC50 values (concentration that produces a 50% reduction in cellular growth when compared to untreated control cells) and IC100 values (concentration that promotes total growth inhibition) were determined through non-linear regression analysis using software ORIGIN 8.0® (OriginLab Corporation). Compounds with IC50 values < 100 μM were considered actives.
# breast (MCF-7) = assay: Cytotoxic assay (sulforhodamine B), breast; format: cell-based; settings: Homo sapiens, MCF7, 48 h
# Procedure: as §1
# glioma (U251) = assay: Cytotoxic assay (sulforhodamine B), glioma; format: cell-based, human; settings: for IC50: Homo sapiens, U-251, 48 h, sulforhodamine B assay
# Procedure: as §1
# [4] = system: Normal cell line (VERO, renal, green monkey); assay: Cytotoxic assay (sulforhodamine B), normal cell line; format: cell-based; settings: Chlorocebus sabaeus, 48 h
# Procedure: as §1
# prostate (PC-3) [5] = assay: Cytotoxic assay (sulforhodamine B), prostate; format: cell-based, human; settings: for IC50: Homo sapiens, 48 h, sulforhodamine B assay
# Procedure: as §1
# colon (HT-29) = assay: Cytotoxic assay (sulforhodamine B), colon; format: cell-based; settings: Homo sapiens, 48 h
# Procedure: as §1
# melanoma (UACC-62) = assay: Cytotoxic assay (sulforhodamine B), melanoma; format: cell-based, human; settings: for IC50: Homo sapiens, UACC-62, 48 h, sulforhodamine B assay
# Procedure: as §1
Compound,IC50 (prostate (PC-3) [1]),IC50 (ovarian (OVCAR-03) [2]),IC50 (ovarian (OVCAR-03) [3]),IC50 (breast (MCF-7)),IC50 (glioma (U251)),IC50 [4],IC50 (prostate (PC-3) [5]),IC50 (colon (HT-29)),IC50 (melanoma (UACC-62)),"IC100 (concentration that promotes total growth inhibition) (ovarian (OVCAR-03) [3]; ovarian (OVCAR-03), cytostatic activity)","IC100 (concentration that promotes total growth inhibition) (glioma (U251); glioma (U251), cytostatic activity)","IC100 (concentration that promotes total growth inhibition) (prostate (PC-3) [5]; prostate (PC-3), cytostatic activity)","IC100 (concentration that promotes total growth inhibition) (melanoma (UACC-62); melanoma (UACC-62), cytostatic activity)"
"CN(C)c1ccc(-c2nc(-c3n[nH]c(=S)[nH]3)cc3c2[nH]c2ccccc23)cc1 [1-(4-N,N-dimethylaminophenyl)-3-(5-thioxo-1,2,4-triazol-3-yl)-β-carboline]",1.37 µM,1.09 µM,,,,,,,,,,,
"CC(=O)Oc1ccc(-c2nc(C3=NC(=Cc4cccc([N+](=O)[O-])c4)C(=O)O3)cc3c2[nH]c2ccccc23)cc1 [Compound 9, 2-[1-(4-Acetoxyphenyl)-9H-β-carbolin-3-yl]-4-(3-nitrobenzylidene)-4H-oxazol-5-one]",,,> 100 µM,> 100 µM,80.2 µM,> 100 µM,> 100 µM,> 100 µM,8.76 µM,,,,
"COc1ccc(-c2nc(-c3nnc(SC)o3)cc3c2[nH]c2ccccc23)cc1 [1-(4-methoxyphenyl)-3-(2-methylthio-1,3,4-oxadiazol-5-yl) β-carboline]",,2.13 µM,,,,,,,,,,,
"O=C1OC(c2cc3c([nH]c4ccccc43)c(-c3ccccc3)n2)=NC1=Cc1cccc([N+](=O)[O-])c1 [Compound 8, 2-(1-Phenyl-9H-β-carbolin-3-yl)-4-(3-nitrobenzylidene)-4H-oxazol-5-one]",,,63.2 µM,> 100 µM,62.4 µM,> 100 µM,> 100 µM,> 100 µM,7.52 µM,,,,
O=C(NN=Cc1ccccc1Cl)c1cc2c([nH]c3ccccc32)c(-c2ccc(O)cc2)n1 [N'-(2-chlorobenzylidene)-1-(4-hydroxyphenyl)-β-carboline-3-carbohydrazide],1.83 µM,1.65 µM,,,,,,,,,,,
"COc1ccc(-c2nc(C3=NC(=Cc4ccccc4)C(=O)O3)cc3c2[nH]c2ccccc23)cc1 [Compound 11, 2-[1-(4-Methoxyphenyl)-9H-β-carbolin-3-yl]-4-benzylidene-4H-oxazol-5-one]",,,1.07 µM,23.4 µM,0.48 µM,63.2 µM,1.5 µM,67.9 µM,10 µM,56.83 µM,15.50 µM,64.17 µM,112.42 µM
"COc1ccc(-c2nc(C3=NC(=Cc4cccc([N+](=O)[O-])c4)C(=O)O3)cc3c2[nH]c2ccccc23)cc1 [Compound 10, 2-[1-(4-Methoxyphenyl)-9H-β-carbolin-3-yl]-4-(3-nitrobenzylidene)-4H-oxazol-5-one]",,,2.18 µM,47.6 µM,0.35 µM,> 100 µM,5.28 µM,> 100 µM,15.9 µM,,,,
"COc1cccc2c1C(=O)c1c(O)c3c(c(O)c1C2=O)C[C@@](O)(C(=O)CO)C[C@@H]3O[C@H]1C[C@H](N)[C@H](O)[C@H](C)O1 [Doxorubicin, reference compound]",,,0.42 µM,0.06 µM,0.03 µM,0.5 µM,0.05 µM,0.18 µM,0.04 µM,,,,
